Measured values reported in the supplement of paper PMC9334596.
Counter-ions that a name gives are not always drawn.

System: mPer2Luc MEF
Test: PER2::LUC luminescence relative to vehicle control (fold of vehicle); higher = higher PER2::LUC reporter signal
Procedure: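 Secondary dose-response validation of 72 circadian-modulating compounds in mPer2Luc MEFs, threefold dilution series of six doses from 10 uM down to 0.04 uM. PER2::LUC luminescence read at 24 h and 30 h after treatment, normalised to vehicle (DMSO) control.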

[1] = time after treatment: 24-hour, concentration: 0.04μM
[2] = time after treatment: 24-hour, concentration: 0.37μM
[3] = time after treatment: 24-hour, concentration: 3.33μM
[4] = time after treatment: 24-hour, concentration: 10μM
[5] = time after treatment: 30-hour, concentration: 0.04μM
[6] = time after treatment: 30-hour, concentration: 0.37μM
[7] = time after treatment: 30-hour, concentration: 3.33μM
[8] = time after treatment: 30-hour, concentration: 10μM

Row | SMILES | PER2::LUC luminescence [1] | PER2::LUC luminescence [2] | PER2::LUC luminescence [3] | PER2::LUC luminescence [4] | PER2::LUC luminescence [5] | PER2::LUC luminescence [6] | PER2::LUC luminescence [7] | PER2::LUC luminescence [8]
1 | O=C(Nc1cccc(Cl)c1)c1ccccn1 | 1.06 | 1.28 | 1.51 | 1.81 | 1.06 | 1.29 | 1.57 | 1.92
2 | Cc1ccc(NC(=O)Nc2cc(C(F)(F)F)ccc2F)cc1Nc1ccc2c(c1)NC(=O)/C2=C\c1ccc[nH]1 [GNF-5837] | 1.07 | 1.06 | 1.15 | 0.539 | 1.05 | 1.05 | 1.2 | 0.751
3 | O=C(Nc1ccc(OC(F)(F)F)cc1)c1sccc1NCc1ccnc2ccccc12 [OSI-930] | 1.11 | 1.04 | 1.37 | 1.43 | 1.14 | 1.11 | 1.57 | 1.91
4 | Nc1ncnc2c1C(=O)N(c1ccc([C@H]3CC[C@H](CC(=O)O)CC3)cc1)CCO2 | 1.04 | 0.984 | 1 | 1 | 1.03 | 0.966 | 1.06 | 1.01
5 | CN1CCN(S(=O)(=O)c2ccc(-c3cnc(N)c(C(=O)Nc4cccnc4)n3)cc2)CC1 [AZD2858] | 1.18 | 1.37 | 1.01 | 0.842 | 0.938 | 1.16 | 0.874 | 0.676
6 | CN1CCN(c2nc3ccccc3nc2Cl)CC1 | 1 | 1.02 | 1.02 | 0.958 | 1.04 | 1.05 | 1.04 | 0.971
7 | COc1ccc(CCN2CCC(Nc3nc4ccccc4n3Cc3ccc(F)cc3)CC2)cc1 [Astemizole] | 0.895 | 0.815 | 0.543 | 0.026 | 0.783 | 0.79 | 0.67 | 0.009
8 | Nc1nccc(Oc2ccc(NC(=O)c3c[nH]cc(-c4ccc(F)cc4)c3=O)cc2F)c1Cl | 1 | 1.02 | 1.03 | 1.12 | 1.06 | 1.03 | 0.929 | 1
9 | O=C(O)c1ccc2c(c1)nc(Nc1cccc(Cl)c1)c1ccncc12 [CX-4945] | 1.13 | 1.06 | 1.05 | 0.842 | 1.11 | 1.05 | 1.08 | 1.06
10 | Cc1cccc(/C=N/Nc2cc(N3CCOCC3)n3nc(-c4ccncc4)cc3n2)c1 [APY0201] | 0.206 | 0.187 | 0.151 | 0.04 | 0.16 | 0.145 | 0.117 | 0.038
11 | CC1=C2C[C@H]3[C@@H](CC=C4C[C@@H](O)CC[C@@]43C)[C@@H]2CC[C@]12O[C@@H]1C[C@H](C)CN[C@H]1[C@H]2C [Cyclopamine] | 0.834 | 0.74 | 0.421 | 0.178 | 0.991 | 0.999 | 0.766 | 0.229
12 | O=c1cc(N2CCOCC2)oc2c(-c3cccc4c3sc3ccccc34)cccc12 | 0.952 | 0.951 | 1.05 | 1.07 | 0.952 | 0.931 | 1.08 | 1.09
13 | Cc1ccc(-n2nc(C(C)(C)C)cc2NC(=O)Nc2ccc(OCCN3CCOCC3)c3ccccc23)cc1 [BIRB 796 (Doramapimod)] | 0.968 | 0.966 | 0.963 | 1.09 | 0.892 | 0.941 | 0.924 | 1.26
14 | CCc1cncnc1N1CCN(Cc2nc3ccc(C(F)(F)F)cc3[nH]2)CC1 | 1.03 | 1 | 1.01 | 1.06 | 1 | 1.03 | 1.01 | 1.03
15 | C/C(=C\C(=O)Nc1ccccc1C(=O)O)c1ccc2ccccc2c1 [BIBR 1532] | 0.94 | 0.97 | 0.991 | 1.16 | 0.94 | 0.891 | 0.98 | 1.26
16 | COc1cc(NC(=O)c2ccc(-c3ccc(Cl)cc3)o2)cc(OC)c1 | 0.886 | 0.894 | 0.888 | 0.875 | 0.83 | 0.878 | 0.95 | 0.864
17 | CCOC(=O)c1ccc(N(C)c2csc(-c3ccccc3)n2)cc1 [Neuropathiazol] | 0.939 | 1 | 1.04 | 1.1 | 0.913 | 0.937 | 1 | 1.08
18 | NS(=O)(=O)c1ccc(NC(=O)Nc2ccc(F)cc2)cc1 [U-104] | 1.04 | 1.05 | 1.01 | 0.876 | 1.05 | 1.06 | 1.06 | 0.947
19 | O=c1c(-c2ccc(O)cc2)coc2cc(O)ccc12 [Daidzein] | 1.01 | 0.97 | 1.1 | 1.3 | 0.995 | 1.04 | 1.11 | 1.59
20 | CCc1nc(-c2cccc(C)c2)c(-c2ccnc(NC(=O)c3ccccc3)c2)s1 [TAK 715] | 0.993 | 0.95 | 0.955 | 0.895 | 0.926 | 0.929 | 0.924 | 0.888
21 | O=C(c1ccc(OCCN2CCCCC2)cc1)c1c(-c2ccc(O)cc2)sc2cc(O)ccc12 [Raloxifene HCl] | 0.941 | 0.955 | 0.814 | 0.287 | 1 | 0.996 | 0.896 | 0.512
22 | CNC(=O)c1cc(Oc2ccc(NC(=O)Nc3cc(C(C)(C)C)nn3-c3ccc4ncccc4c3)c(F)c2)ccn1 [DCC-2036] | 1.27 | 1.3 | 1.28 | 1.1 | 1.72 | 1.81 | 1.74 | 1.27
23 | COc1cc(CCc2cc(NC(=O)c3ccc(N4CC(C)NC(C)C4)cc3)n[nH]2)cc(OC)c1 (stereo unspecified) [AZD4547] | 0.792 | 0.795 | 0.679 | 0.329 | 0.796 | 0.73 | 0.643 | 0.278
24 | O=C1c2ccccc2C(=O)c2oc(-c3ccccc3)nc21 [SJB2-043] | 1.11 | 1.29 | 1.94 | 1.65 | 1.17 | 1.2 | 1.36 | 1.11
25 | CCN1CCN(Cc2ccc(NC(=O)Nc3ccc(Oc4cc(NC)ncn4)cc3)cc2C(F)(F)F)CC1 [AST 487] | 0.843 | 0.869 | 0.792 | 0.031 | 0.918 | 0.891 | 0.951 | 0.023
26 | O=C(O)CCCCC(CCSCc1ccccc1)SCc1ccccc1 (stereo unspecified) [CPI-613] | 1 | 0.991 | 1.05 | 1.09 | 1.02 | 0.999 | 1.04 | 1.03
27 | O=C(NC1CC1)c1cc(-c2cccs2)on1 [N-cyclopropyl-5-(thiophen-2-yl)-1,2-oxazole-3-carboxamide] | 1.3 | 1.33 | 1.66 | 1.76 | 1.37 | 1.44 | 1.79 | 1.99
